# In patent US20140065649A1, “TEST SYSTEMS AND METHODS FOR IDENTIFYING AND CHARACTERISING LIPID LOWERING DRUGS” (Sanofi, priority 2011, published 2014):
# Entries after “also recorded” stand apart in the source; their conditions may differ.
# How the values were obtained:
# [1] = tested on: human HepG2 or Huh7 cells; conditions: cited from earlier work
# dyslipidemic hamsters = conditions: cited from earlier work
# [2] = tested on: normolipidemic male Syrian hamsters; experiment: Study 1: serum lipids after single s.c. injection in normolipidemic hamsters; assay type: in vivo, Mesocricetus auratus; conditions: for decrease in TC: Day 7
# [3] = Study 1: serum 316P levels by sandwich ELISA; assay type: in vivo, Mesocricetus auratus; conditions: Study 1, 24-hour time point, 1, 3, and 10 mg/kg
# [4] = tested on: normolipidemic male Syrian hamsters; conditions: Study 1, single s.c. 1, 3, or 10 mg/kg, data not shown
# [5] = tested on: normolipidemic male Syrian hamsters; experiment: Study 2: serum lipids, atorvastatin twice daily with and without single s.c. 316P in normolipidemic hamsters; assay type: in vivo, Mesocricetus auratus
# [6] = tested on: hepatic low density lipoprotein receptor (LDLR) protein; experiment: Study 2: hepatic LDLR levels by Western blot; assay type: in vivo, Mesocricetus auratus; conditions: Study 2, Western blot; 316P 10 mg/kg, atorvastatin 2×20 mg/kg
# hPCSK9 = hPCSK9 (Homo sapiens, UniProt Q8NBP7); conditions: cited from earlier work
# hPCSK9, sequence (Q8NBP7 153-692): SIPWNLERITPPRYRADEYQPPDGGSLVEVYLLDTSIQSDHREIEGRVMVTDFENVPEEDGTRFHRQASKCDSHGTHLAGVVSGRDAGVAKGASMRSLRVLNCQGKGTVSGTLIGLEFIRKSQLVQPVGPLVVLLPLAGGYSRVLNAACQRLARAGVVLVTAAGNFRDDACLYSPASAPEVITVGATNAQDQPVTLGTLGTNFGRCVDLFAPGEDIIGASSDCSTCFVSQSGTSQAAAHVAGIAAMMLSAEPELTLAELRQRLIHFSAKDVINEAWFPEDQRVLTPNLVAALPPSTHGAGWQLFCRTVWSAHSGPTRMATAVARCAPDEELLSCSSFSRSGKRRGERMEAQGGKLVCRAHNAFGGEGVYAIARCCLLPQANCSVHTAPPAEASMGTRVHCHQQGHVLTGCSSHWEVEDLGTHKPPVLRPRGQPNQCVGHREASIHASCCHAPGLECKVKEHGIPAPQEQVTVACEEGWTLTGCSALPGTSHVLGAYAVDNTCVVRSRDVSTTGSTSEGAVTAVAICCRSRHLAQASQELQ
# [7] = tested on: normolipidemic male Syrian hamsters; conditions: in vivo, sc
# Procedure: (§1) Male Syrian hamsters (strain RjHan: AURA in Study 1 and Bio™ F1B in Study 2), weighing between 90 and 100 g, were purchased from Janvier, Germany, and were allowed to acclimatize for a period of 7 days before entering the study.
# (§2) The investigation was divided into 2 studies. […] For each study, body weight and food consumption (weight changes in chow) were measured once a week, starting 1 week before dosing. […] In Study 1, samples were taken on Days −6, 1, 7, 14, 21, and 28; in Study 2, samples were taken on Days −7, 0, 3, and 7. Serum was obtained after centrifugation using Serum-Gel® tubes (Sarstedt, Nümbrecht, Germany).
# (§3) At the end of each study, animals were sacrificed in a nonfasted state and liver was immediately weighed and shock frozen on dry ice.
# (§4) All data are expressed as means±standard error of the mean (SEM) and were tested for normality and variance homogeneity before analysis. […] In Study 1, the vehicle-treated control versus treatment-naive control group was analyzed separately using 2-way ANOVA followed by the Dunnett test. A P value of ≦0.05 was considered statistically significant. Food consumption and safety parameters (AST, ALT, AP, and CK) were descriptively evaluated.
# [8] = target: hPCSK9 D238 mutated (D238R) (Homo sapiens, UniProt Q8NBP7, D238R); conditions: cited from earlier work
# hPCSK9 D238 mutated (D238R), sequence (Q8NBP7 153-692 D238R): as the sequence (Q8NBP7 153-692) above, with D86R counted along it
# PCSK9 = conditions: in hamsters; cited from earlier work
# [9] = tested on: PCSK9-mediated down-regulation of LDL uptake via LDLR in HepG2 cells; conditions: cited from earlier work
# humans = conditions: human phase 1 study, interim analysis, single i.v. administration; cited from earlier work
# [10] = tested on: normolipidemic male Syrian hamsters; experiment: Study 2: safety parameters, body weight, liver weight and liver lipids
# Procedure: as §1, §2, §3, §4
# [11] = Study 2, 316P single s.c. 10 mg/kg alone, sustained until Day 7
# [12] = D238 mutated vs unmutated hPCSK9
# [13] = Study 2, atorvastatin alone 10 or 20 mg/kg p.o. twice daily, after 7 days
compound,measurement,setting,value
CC(C)c1nc(N(C)S(C)(=O)=O)nc(-c2ccc(F)cc2)c1/C=C/[C@@H](O)C[C@@H](O)CC(=O)O [rosuvastatin],effect on the level of HNF1 alpha,[1],no appreciable effect
same,increase in LDLR mRNA and protein,[1],≈ 2 fold
same,increase in PCSK9 mRNA and protein,[1],≈ 3 fold
same,hepatic LDLR levels,dyslipidemic hamsters,reduced
same,serum LDL-C levels,dyslipidemic hamsters,slightly increased
316P: fully human monoclonal anti-PCSK9 antibody comprising HCVR SEQ ID NO: 9 and LCVR SEQ ID NO: 10 [Antibody 316P],reduction in HDL-C,"[2]; Study 1, data not shown",statistically significant but less pronounced than the effect on LDL-C
same,serum TG levels,"[2]; Study 1, every dose throughout the study",remained relatively constant
same,decrease in TC,"[2]; Study 1, single s.c. 1 mg/kg",9%
same,maximal effect on LDL-C (reduction),"[2]; Study 1, single s.c. 1 mg/kg, after Day 1, vs PBS control",17%
same,decrease in TC,"[2]; Study 1, single s.c. 3 mg/kg",17%
same,maximal effect on LDL-C (reduction),"[2]; Study 1, single s.c. 3 mg/kg, after Day 7, vs PBS control",27%
same,decrease in TC,"[2]; Study 1, single s.c. 10 mg/kg",28%
same,maximal effect on LDL-C (reduction),"[2]; Study 1, single s.c. 10 mg/kg, after Day 7, vs PBS control",59%
same,duration of dose-dependent decrease in LDL-C (TC and LDL-C),"[2]; Study 1, single s.c. 1, 3, or 10 mg/kg",more than 2 weeks
same,day on which LDL-C levels reach PBS control-treated levels (0% reduction),"[2]; Study 1, single s.c. injection",28 days
same,HDL-C levels,"[2]; highest dose 10 mg/kg, data not shown",significant reduction
same,serum 316P concentration vs dose,[3],proportional to theoretical dosing levels
same,"effects on safety parameters, relative liver weight, hepatic cholesterol, TG, phospholipid concentration",[4],no biologically relevant effects
same,reduction in HDL-C,"[5]; Study 2, 316P 10 mg/kg (groups not specified), data not shown",statistically significant but less pronounced than the effect on LDL-C
same,effect on serum LDL-C,[5]; [11],potent effect
same,effect on serum TC,[5]; [11],potent effect
same,level of hepatic LDLR expression compared with the PBS control groups,[6],149%
same,level of hepatic LDLR protein versus PBS control,[6],1.5 fold
same,binding affinity for PCSK9,hPCSK9; in humans,high binding affinity
same,T1/2,hPCSK9; unmutated hPCSK9,~37 min
same,Kd,"hPCSK9; unmutated hPCSK9, read-out: KD (binding affinity)",~1 nM
same,"effects on relative liver weight, hepatic cholesterol, TG or phospholipid concentration",[7],no clinically relevant effects
same,decrease of T1/2,[8]; [12],> 30 fold
same,reduction in binding affinity,[8]; [12],> 400 fold
same,T1/2,[8]; D238 mutated,~1 min
same,Kd,"[8]; D238 mutated, read-out: KD (binding affinity)",~410 nM
same,binding affinity for PCSK9,PCSK9,high binding affinity
same,effect on PCSK9-mediated down-regulation of LDL uptake via LDLR,[9],antagonizes
same,LDL-C reduction,humans,exceeded 60%
same,duration of LDL-C reduction,humans,30 days
same,tolerability,[10]; Study 2,well tolerated
CC(C)c1c(C(=O)Nc2ccccc2)c(-c2ccccc2)c(-c2ccc(F)cc2)n1CC[C@@H](O)C[C@@H](O)CC(=O)O [atorvastatin],reduction in TG levels,"[5]; Study 2, atorvastatin 2×20 mg/kg, after 7 days of treatment",23%
same,reduction of serum TG levels,"[5]; Study 2, atorvastatin alone 10 mg/kg or 20 mg/kg p.o. twice daily, after 7 days",23%
same,effect on serum HDL-C,[5]; [13],no significant effect
same,effect on serum LDL-C,[5]; [13],no significant effect
same,effect on serum TC,[5]; [13],no significant effect
same,ALT levels,"[10]; Study 2, atorvastatin 2×10 or 20 mg/kg","slight, clinically insignificant increase; also recorded: biologically relevant increase"
